# Laboratory results reported in publication PMC4108065, “Inflammation and pancreatic cancer: molecular and functional interactions between S100A8, S100A9, NT-S100A8 and TGFβ1” (Cell Communication and Signaling : CCS, 2014).
# Key:
# Assay type in all cases: cell-based, human
# [1] = test system: Smad4 silenced MiaPaCa2 IκBα and S6RP phosphorylation; experiment: Signaling western blot in Smad4 silenced MiaPaCa2; conditions: Smad4-siRNA MiaPaCa2 vs MiaPaCa2, 10 minutes, 0.02 ng/ml TGFβ1, 10 nM S100A8, 50 nM NT-S100A8; for effect of silenced Smad4 on S6RP phosphorylation: western blot; for effect of Smad4 silencing on inhibition of NF-κB: IκBα Ser32 western blot
# Description: The pancreatic cancer cell lines used were: Panc1 and Suit2, donated by Prof Aldo Scarpa (University of Verona, Italy); BxPC3, from Dr Andrea Galli (University of Florence, Italy); MiaPaCa2, Capan1 and the human embryonic kidney Hek293 cell lines, supplied by the American Type Culture Collection (Manassas, VA, USA). BxPC3, Capan1 and Panc1 were cultured in RPMI (Gibco/BRL, Gaithhersburg, MD, USA) supplemented with 10% (BxPC3 and Panc1) and 20% (Capan1) fetal calf serum (FCS) (Gibco/BRL), 1% L-glutamine (Gibco/BRL) and 0.1% gentamycin (Gibco/BRL). MiaPaCa2 and Hek293 were cultured in DMEM (Gibco/BRL) supplemented with 10% FCS, 2% L-glutamine and 0.1% Gentamycin. BxPC3 cells were transfected with the expression vector pBK-cytomegalovirus (CMV)-SMAD4/DPC4, as previously described. One SMAD4/DPC4-expressing clone (BxPC3-SMAD4+) was used for the experiments. Smad4 silencing of MiaPaCa2 cells was performed as previously described.
# (§1) Five million cells were seeded in Petri dishes (ø 10 cm) and cultured for 24 hours in their respective complete media prior to starting the experiments. Cells remained non-stimulated (negative control) or were stimulated with 50 mU insulin (positive control) (Insuman Rapid, Sanofi-Aventis, Deutschland, GmbH) for 10 min; in parallel, experimental cells were stimulated with 50 nM NT-S100A8, 0,02 ng/ml TGFβ1 (ProSpec-Tany TechnoGene), 10 nM S100A8 and 10 nM S100A9 alone or combined for 10 min. Following stimulations, Petri dishes were immediately transferred into an ice bath, and the cells were washed twice with cold PBS, re-suspended in 100 μl of cold lysis buffer [20 mM Tris–HCl, pH 7.5, 150 mM NaCl, 1 mM EDTA, 1% Triton-X 100, 50 mM NaF, 10 mM Na4P2O7,1 mM Na3VO4, and 10% protease inhibitor cocktail (Sigma Aldrich SRL, Milano, Italy)]. Lysates were centrifuged for 10 min at 14,000 rpm at 4°C and, in the supernatants, total proteins were measured using the Bio-Rad protein assay (Bio-Rad Laboratories, Milano, Italy). Each experiment was performed at least in triplicate.
# (§2) For each sample, 40 μg proteins were electrophoresed through 4–12% NuPAGE®NovexBis-Tris SDS–PAGE Gel or 3-8% NuPAGE®NovexTris-Acetate SDS–PAGE Gel (Invitrogen S.R.L., Life Technologies, Monza, Italy) and electrophoretically transferred to Nitrocellulose Membrane (iBlot® Transfer Stack, Invitrogen S.R.L.) by means of the iBlotTMDry Blotting System (Invitrogen S.R.L.). Following incubation for 1 hour in a blocking buffer [5% low fat powder milk re-suspended in PBS-T (PBS with 0.1% Tween-20)], membranes were incubated overnight at 4°C with the primary antibodies [antiphospho IkB-α (Ser^32) (Santa Cruz Biotechnology, Inc., Santa Cruz, CA, USA); anti-phospho-Akt (Ser^473), anti-phospho-Akt (Thr^308), anti-Akt and anti-phospho-S6 Ribosomal Protein (Ser^235/236), anti-cleaved Caspase-3, anti-phospho-Stat3 Tyr^705, anti-β-actin, anti-phospho mTOR (Ser^2448, Ser^2481) (Cell Signaling Technology, Danvers, MA, USA); anti-RAGE (R&D Systems, Minneapolis, MN, USA) ] diluted 1:5000 (β-actin), 1:2000 (mTOR, cleaved Caspase-3, Stat3) or 1:3000 (all the others) in the blocking buffer. The blots, washed three times in PBS-T for 15 min, were incubated with […] anti-rabbit (Cell Signaling Technology) or anti-goat (Sigma Aldrich) secondary antibodies and then washed three times in PBS-T for 15 min and developed with the ECL Advance Western Blot Detection Kit (GE Healthcare Technologies, Milan, Italy).
# [2] = test system: Akt phosphorylation sites Thr308 and Ser473; experiment: Akt signaling, western blot in PDAC cell lines; conditions: BxPC3, Capan1, MiaPaCa2, Panc1, 10 min; for Akt Ser473 phosphorylation: 10 nM S100A8, S100A9, S100A8/A9, 50 nM NT-S100A8; for Akt Thr308 phosphorylation: 10 nM S100A8, S100A9, S100A8/A9, 50 nM NT-S100A8, 0.02 ng/ml TGFβ1
# Description: as §1, §2
# BxPC3-SMAD4+ = experiment: XTT cell viability assay, BxPC3-SMAD4+; conditions: BxPC3-SMAD4+ vs BxPC3, XTT, 48 hours; TGFβ1 0.02 ng/ml, NT-S100A8 50 nM
# Description: Supplementary file 1478-811X-12-20-S7.tiff: Additional file 7: Figure S6 XTT cell viability assay results. BxPC3 (empty columns) and BxPC3-SMAD4+ (filled columns) were seeded in a 96 well culture plate (2000 cells/well) and cultured for 48 hours, A: in absence (control) or in presence of TGFβ1 (0.02 ng/ml) and NT-S100A8 (50 nM), alone or combined; B: in absence (control) or in presence of TGFβ1 (0.02 ng/ml) and S100A8 (10 nM) and S100A9 (10 nM), alone or combined. In each experimental set, the median value of Abs450nm of untreated cells was calculated and used as reference. All the other values were expressed as percentage to the reference. Columns and bars show mean and standard errors, respectivelty. Student’s t test: * = p<0.05. Click here for file
# BxPC3, Capan1, MiaPaCa2, Panc1 and BxPC3-SMAD4+ cells were seeded (2000 cells per well) in 96-well cell culture plates and cultured in complete media for 24 hours. […] Cell growth was assessed after 48 hours using the XTT cell viability test (Roche, Milano, Italy). […] The results were expressed as percentage with respect to the median Abs450nm of control cells run in the same experimental set.
Substance,effect of silenced Smad4 on S6RP phosphorylation [1],Akt Ser473 phosphorylation [2],Akt Thr308 phosphorylation [2],cell proliferation response associated with Smad4 expression (BxPC3-SMAD4+),effect of Smad4 silencing on inhibition of NF-κB [1]
"NT-S100A8: 14 N-terminal aminoacid peptide of S100A8, isolated from PDAC tissues (MLTELEKALNSIID; UniProt P05109 1-14, looked up, fragment)",markedly reduced S6RP phosphorylation,augmented in the same cell lines,reduced in Capan1 and MiaPaCa2,positive cell proliferation response,–
TGFβ1: transforming growth factor beta 1 (ProSpec-Tany TechnoGene),markedly reduced S6RP phosphorylation,–,"inhibited Akt Thr^308, but not Akt Ser^473 phosphorylation in Smad4 expressing cells",positive cell proliferation response,reduced the inhibition of NF-κB
S100A8: inflammatory calcium binding protein S100A8 (ProSpec-Tany TechnoGene),markedly reduced S6RP phosphorylation,"reduced Akt Ser^473 phosphorylation in Capan1, MiaPaCa2 and Panc1 cells","induced in BxPC3, and reduced in the other cell lines",–,reduced the inhibition of NF-κB
"S100A9: inflammatory calcium binding protein S100A9, S100A8 binding partner",–,"reduced Akt Ser^473 phosphorylation in Capan1, MiaPaCa2 and Panc1 cells","induced in BxPC3, and reduced in the other cell lines",–,–
